Measurements taken from the NIST ThermoML archive (doi:10.1021/je700260f).
Several values for one entry are separate records, joined by “and”; a condition that tells them apart may be missing. Identical values can stand only once.

Conditions: Liquid, Vibrating tube method

FC(C(F)(F)F)C(F)(F)F [1,1,1,2,3,3,3-heptafluoropropane]
Conditions | mass density
283.15 K, 34529 kPa | 1579 kg/m3
283.15 K, 34530 kPa | 1579 kg/m3
283.15 K, 34532 kPa | 1579.1 kg/m3
283.15 K, 34533 kPa | 1579 kg/m3
283.15 K, 34534 kPa | 1579.1 kg/m3
283.15 K, 34535 kPa | 1579.2 kg/m3
283.15 K, 34536 kPa | 1579 kg/m3
283.15 K, 34538 kPa | 1579 kg/m3 and 1579.1 kg/m3
283.15 K, 34540 kPa | 1579.1 kg/m3
283.15 K, 34541 kPa | 1579.1 kg/m3
283.16 K, 9519 kPa | 1496 kg/m3
283.16 K, 9552 kPa | 1496.3 kg/m3
283.16 K, 9579 kPa | 1496.3 kg/m3
283.16 K, 9612 kPa | 1496.4 kg/m3
283.16 K, 21379 kPa | 1540.8 kg/m3
293.14 K, 783 kPa | 1411.5 kg/m3
293.14 K, 832 kPa | 1411.9 kg/m3
293.14 K, 869 kPa | 1412.2 kg/m3
293.14 K, 911 kPa | 1412.4 kg/m3
293.14 K, 943 kPa | 1412.7 kg/m3
293.14 K, 980 kPa | 1412.9 kg/m3
293.14 K, 1007 kPa | 1413.2 kg/m3
293.14 K, 1048 kPa | 1413.5 kg/m3
293.14 K, 1080 kPa | 1413.6 kg/m3
293.14 K, 1113 kPa | 1414 kg/m3
293.14 K, 1145 kPa | 1414.1 kg/m3
293.14 K, 1191 kPa | 1414.5 kg/m3
293.14 K, 1219 kPa | 1414.6 kg/m3
293.14 K, 1252 kPa | 1414.9 kg/m3
293.14 K, 1285 kPa | 1415 kg/m3
293.14 K, 1319 kPa | 1415.2 kg/m3
293.14 K, 1347 kPa | 1415.6 kg/m3
293.14 K, 1380 kPa | 1415.7 kg/m3
293.14 K, 1417 kPa | 1415.9 kg/m3
293.14 K, 1446 kPa | 1416.2 kg/m3
293.14 K, 1484 kPa | 1416.4 kg/m3
293.14 K, 1514 kPa | 1416.7 kg/m3
293.14 K, 1543 kPa | 1417 kg/m3
293.14 K, 1583 kPa | 1417.1 kg/m3
293.14 K, 1612 kPa | 1417.3 kg/m3
293.14 K, 1754 kPa | 1418.3 kg/m3
293.14 K, 1789 kPa | 1418.7 kg/m3
293.14 K, 1824 kPa | 1418.8 kg/m3
293.14 K, 1901 kPa | 1419.3 kg/m3
293.14 K, 1941 kPa | 1419.6 kg/m3
293.14 K, 1972 kPa | 1419.8 kg/m3
293.14 K, 2001 kPa | 1420.1 kg/m3
293.14 K, 2030 kPa | 1420.1 kg/m3
293.14 K, 2059 kPa | 1420.5 kg/m3
293.14 K, 2084 kPa | 1420.5 kg/m3
293.14 K, 2104 kPa | 1420.7 kg/m3
293.14 K, 2140 kPa | 1421 kg/m3
293.14 K, 2164 kPa | 1421 kg/m3
293.14 K, 2197 kPa | 1421.3 kg/m3
293.14 K, 2221 kPa | 1421.4 kg/m3
293.14 K, 2258 kPa | 1421.7 kg/m3
293.14 K, 2291 kPa | 1421.9 kg/m3
293.14 K, 2324 kPa | 1422.2 kg/m3
293.14 K, 2349 kPa | 1422.4 kg/m3
293.14 K, 2377 kPa | 1422.7 kg/m3
293.14 K, 2402 kPa | 1422.6 kg/m3
293.14 K, 2682 kPa | 1424.5 kg/m3
293.14 K, 2707 kPa | 1424.7 kg/m3
293.14 K, 2740 kPa | 1424.9 kg/m3
293.14 K, 2766 kPa | 1425.1 kg/m3
293.14 K, 2804 kPa | 1425.4 kg/m3
293.14 K, 2829 kPa | 1425.5 kg/m3
293.14 K, 2858 kPa | 1425.8 kg/m3
293.14 K, 2883 kPa | 1425.8 kg/m3
293.14 K, 2921 kPa | 1426.1 kg/m3
293.14 K, 2959 kPa | 1426.4 kg/m3
293.14 K, 2988 kPa | 1426.7 kg/m3
293.14 K, 3018 kPa | 1426.7 kg/m3
293.14 K, 3056 kPa | 1426.9 kg/m3
293.14 K, 3082 kPa | 1427.2 kg/m3
293.14 K, 3112 kPa | 1427.3 kg/m3
293.14 K, 3147 kPa | 1427.5 kg/m3
293.14 K, 3177 kPa | 1427.8 kg/m3
293.14 K, 3211 kPa | 1427.9 kg/m3
293.14 K, 3246 kPa | 1428.2 kg/m3
293.14 K, 3290 kPa | 1428.4 kg/m3
293.14 K, 3321 kPa | 1428.7 kg/m3
293.14 K, 3360 kPa | 1428.9 kg/m3
293.14 K, 3395 kPa | 1429.1 kg/m3
293.14 K, 3426 kPa | 1429.3 kg/m3
293.14 K, 3461 kPa | 1429.4 kg/m3
293.14 K, 3502 kPa | 1429.8 kg/m3
293.14 K, 3537 kPa | 1430 kg/m3
293.14 K, 3573 kPa | 1430.1 kg/m3
293.14 K, 3604 kPa | 1430.4 kg/m3
293.14 K, 3631 kPa | 1430.7 kg/m3
293.14 K, 3668 kPa | 1430.7 kg/m3
293.14 K, 3690 kPa | 1431.1 kg/m3
293.14 K, 3722 kPa | 1431 kg/m3
293.14 K, 3750 kPa | 1431.3 kg/m3
293.14 K, 3815 kPa | 1431.8 kg/m3
293.14 K, 3876 kPa | 1432.1 kg/m3
293.14 K, 4878 kPa | 1438.3 kg/m3
293.14 K, 4910 kPa | 1438.4 kg/m3
293.14 K, 4933 kPa | 1438.5 kg/m3
293.14 K, 4965 kPa | 1438.7 kg/m3
293.14 K, 4997 kPa | 1438.9 kg/m3
293.14 K, 5029 kPa | 1439.2 kg/m3
293.14 K, 7613 kPa | 1453.4 kg/m3
293.14 K, 7636 kPa | 1453.6 kg/m3
293.14 K, 7664 kPa | 1453.8 kg/m3
293.14 K, 7697 kPa | 1454 kg/m3
293.14 K, 7725 kPa | 1454 kg/m3
293.14 K, 7758 kPa | 1454.2 kg/m3
293.14 K, 7801 kPa | 1454.4 kg/m3
293.14 K, 7862 kPa | 1454.8 kg/m3
293.14 K, 7886 kPa | 1454.8 kg/m3
293.14 K, 7919 kPa | 1455.1 kg/m3
293.14 K, 7952 kPa | 1455.3 kg/m3
293.14 K, 7995 kPa | 1455.4 kg/m3
293.14 K, 8024 kPa | 1455.6 kg/m3
293.14 K, 8053 kPa | 1455.7 kg/m3
293.14 K, 8087 kPa | 1455.9 kg/m3
293.14 K, 8111 kPa | 1456.1 kg/m3
293.14 K, 8140 kPa | 1456.2 kg/m3
293.14 K, 8183 kPa | 1456.4 kg/m3
293.14 K, 8211 kPa | 1456.6 kg/m3
293.14 K, 8240 kPa | 1456.7 kg/m3
293.14 K, 8283 kPa | 1456.9 kg/m3
293.14 K, 8312 kPa | 1457.1 kg/m3
293.14 K, 8350 kPa | 1457.4 kg/m3
293.14 K, 8380 kPa | 1457.4 kg/m3
293.14 K, 8410 kPa | 1457.7 kg/m3
293.14 K, 8447 kPa | 1457.8 kg/m3
293.14 K, 8480 kPa | 1457.9 kg/m3
293.14 K, 8509 kPa | 1458.1 kg/m3
293.14 K, 8542 kPa | 1458.3 kg/m3
293.14 K, 9213 kPa | 1461.8 kg/m3
293.14 K, 9292 kPa | 1462.1 kg/m3
293.14 K, 9327 kPa | 1462.4 kg/m3
293.14 K, 9357 kPa | 1462.4 kg/m3
293.14 K, 9402 kPa | 1462.7 kg/m3
293.14 K, 9437 kPa | 1462.7 kg/m3
293.14 K, 9481 kPa | 1463 kg/m3
293.14 K, 9511 kPa | 1463.2 kg/m3
293.14 K, 9547 kPa | 1463.4 kg/m3
293.14 K, 9584 kPa | 1463.5 kg/m3
293.14 K, 9615 kPa | 1463.7 kg/m3
293.14 K, 9655 kPa | 1464 kg/m3
293.14 K, 9695 kPa | 1464.1 kg/m3
293.14 K, 9731 kPa | 1464.2 kg/m3
293.14 K, 9771 kPa | 1464.6 kg/m3
293.14 K, 9807 kPa | 1464.6 kg/m3
293.14 K, 9843 kPa | 1464.8 kg/m3
293.14 K, 9879 kPa | 1464.9 kg/m3
293.14 K, 9915 kPa | 1465.1 kg/m3
293.14 K, 9946 kPa | 1465.3 kg/m3
293.14 K, 10356 kPa | 1467.4 kg/m3
293.14 K, 10403 kPa | 1467.6 kg/m3
293.14 K, 10428 kPa | 1467.8 kg/m3
293.14 K, 10474 kPa | 1467.9 kg/m3
293.14 K, 10520 kPa | 1468.1 kg/m3
293.14 K, 11001 kPa | 1470.5 kg/m3
293.14 K, 12780 kPa | 1478.5 kg/m3
293.14 K, 12814 kPa | 1478.8 kg/m3
293.14 K, 12854 kPa | 1478.9 kg/m3
293.14 K, 12939 kPa | 1479.2 kg/m3
293.14 K, 13996 kPa | 1483.9 kg/m3
293.14 K, 14034 kPa | 1484.1 kg/m3
293.14 K, 16570 kPa | 1494.7 kg/m3
293.14 K, 16613 kPa | 1494.8 kg/m3
293.14 K, 16642 kPa | 1494.8 kg/m3
293.14 K, 16676 kPa | 1495.1 kg/m3
293.14 K, 16710 kPa | 1495.1 kg/m3
293.14 K, 16801 kPa | 1495.6 kg/m3
293.14 K, 17585 kPa | 1498.6 kg/m3
293.14 K, 17619 kPa | 1498.8 kg/m3
293.14 K, 19526 kPa | 1506.1 kg/m3
293.14 K, 19555 kPa | 1506.3 kg/m3
293.14 K, 19593 kPa | 1506.2 kg/m3
293.14 K, 20937 kPa | 1511.3 kg/m3
293.14 K, 21424 kPa | 1513.1 kg/m3
293.14 K, 21528 kPa | 1513.4 kg/m3
293.14 K, 21563 kPa | 1513.5 kg/m3
293.14 K, 21593 kPa | 1513.7 kg/m3
293.14 K, 21629 kPa | 1513.8 kg/m3
293.14 K, 21779 kPa | 1514.5 kg/m3
293.14 K, 21810 kPa | 1514.5 kg/m3
293.14 K, 21855 kPa | 1514.7 kg/m3
293.14 K, 21896 kPa | 1514.8 kg/m3
293.14 K, 23767 kPa | 1521.3 kg/m3
293.14 K, 32750 kPa | 1549.5 kg/m3
293.14 K, 32783 kPa | 1549.7 kg/m3
293.14 K, 32817 kPa | 1549.7 kg/m3
293.14 K, 32855 kPa | 1549.9 kg/m3
293.14 K, 32884 kPa | 1549.9 kg/m3
293.14 K, 32926 kPa | 1550.1 kg/m3
293.14 K, 32970 kPa | 1550.2 kg/m3
293.14 K, 32998 kPa | 1550.3 kg/m3
293.14 K, 33036 kPa | 1550.4 kg/m3
293.14 K, 33075 kPa | 1550.3 kg/m3
293.14 K, 33109 kPa | 1550.6 kg/m3
293.14 K, 33143 kPa | 1550.6 kg/m3
293.14 K, 33182 kPa | 1550.8 kg/m3
293.14 K, 33215 kPa | 1550.9 kg/m3
293.14 K, 33255 kPa | 1550.8 kg/m3
293.14 K, 33293 kPa | 1551.1 kg/m3
293.14 K, 33323 kPa | 1551.1 kg/m3
293.14 K, 33367 kPa | 1551.3 kg/m3
293.14 K, 33406 kPa | 1551.4 kg/m3
